Assay results as given in patent US20250179103A1, “6-OXODECAHYDROPYRROLO[1,2-A][1,5]DIAZOCINE AND 6-OXODECAHYDRO-4H-PYRROLO[2,1-D][1,5]THIAZOCINE DERIVATIVES AS STAT3 AND STAT6 MODULATORS FOR THE TREATMENT OF CANCER AND INFLAMMATORY CONDITIONS” (Recludix Pharma, Inc., priority 2022, published 2025).

Key:
[1] = target: T1, Recombinant STAT3 protein (STAT3(G127-I722)) (Homo sapiens, UniProt P40763); experiment: STAT3 Fluorescence Polarization (FP) Assay; assay type: binding; settings: STAT3(G127-I722) 25 nM, probe 5-FAM-GpYLPQTV-NH2 2 nM, 45-minute incubation
T1 construct: Recombinant STAT3 protein (STAT3(G127-I722))
T1 sequence (P40763 127-722): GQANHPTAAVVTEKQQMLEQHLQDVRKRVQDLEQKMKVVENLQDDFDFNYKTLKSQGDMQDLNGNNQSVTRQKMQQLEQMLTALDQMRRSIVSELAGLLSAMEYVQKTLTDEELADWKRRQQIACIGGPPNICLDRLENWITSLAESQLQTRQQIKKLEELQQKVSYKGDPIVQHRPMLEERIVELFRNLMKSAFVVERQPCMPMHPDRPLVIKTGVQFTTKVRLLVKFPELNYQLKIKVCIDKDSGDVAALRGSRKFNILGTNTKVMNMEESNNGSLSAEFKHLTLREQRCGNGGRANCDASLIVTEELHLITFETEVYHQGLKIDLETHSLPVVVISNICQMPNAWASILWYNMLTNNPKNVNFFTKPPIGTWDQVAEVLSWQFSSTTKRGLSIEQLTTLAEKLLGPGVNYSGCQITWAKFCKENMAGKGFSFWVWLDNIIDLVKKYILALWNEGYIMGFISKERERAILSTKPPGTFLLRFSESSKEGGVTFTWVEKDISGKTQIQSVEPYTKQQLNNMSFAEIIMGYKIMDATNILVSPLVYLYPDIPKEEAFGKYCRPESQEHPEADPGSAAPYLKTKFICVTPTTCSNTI
Summary of the method: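 STAT3(G127-I722), 25 nM, was mixed with 2 nM 5-FAM-GpYLPQTV-NH2 probe in HEPES pH 7.4 buffer with 1% DMSO and serially diluted compound. FP (mP) was read after 45 min at room temperature. IC50 came from nonlinear regression.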

[2] = target: T2, Recombinant STAT6 protein (STAT6(W123-T658)) (Homo sapiens, UniProt P42226); experiment: STAT6 Fluorescence Polarization (FP) Assay; assay type: binding; settings: STAT6(W123-T658) 250 nM, probe 5-FAM-ApYKPFQDLI-NH2 2 nM, 45-minute incubation
T2 construct: Recombinant STAT6 protein (STAT6(W123-T658))
T2 sequence (P42226 123-658): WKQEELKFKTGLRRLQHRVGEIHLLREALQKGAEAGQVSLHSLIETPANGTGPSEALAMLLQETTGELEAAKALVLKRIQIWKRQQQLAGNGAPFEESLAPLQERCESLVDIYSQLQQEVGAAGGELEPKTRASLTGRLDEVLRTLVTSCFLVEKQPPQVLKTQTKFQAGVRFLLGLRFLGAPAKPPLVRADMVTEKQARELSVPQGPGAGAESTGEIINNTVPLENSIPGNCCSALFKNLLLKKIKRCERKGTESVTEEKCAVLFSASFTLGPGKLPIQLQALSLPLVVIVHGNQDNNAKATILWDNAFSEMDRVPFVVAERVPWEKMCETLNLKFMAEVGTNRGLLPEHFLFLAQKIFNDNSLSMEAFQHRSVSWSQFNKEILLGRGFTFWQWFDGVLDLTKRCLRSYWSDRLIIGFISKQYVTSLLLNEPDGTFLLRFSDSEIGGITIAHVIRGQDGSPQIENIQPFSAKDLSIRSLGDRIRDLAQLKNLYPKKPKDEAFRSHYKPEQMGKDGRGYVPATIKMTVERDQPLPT
Summary of the method: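 Displacement of a fluorescent phosphotyrosine peptide (5-FAM-ApYKPFQDLI-NH2, 2 nM) from STAT6(W123-T658) (250 nM), 1% DMSO, pH 7.4 HEPES buffer. After 45 min at room temperature, polarization (mP) was plotted versus log compound concentration and fitted by nonlinear regression to give IC50.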

| SMILES | IC50 [1] | IC50 [2] |
| --- | --- | --- |
| CC(C)C(=O)N1CC[C@H]2CC[C@@H](C(=O)N(C)c3ccccc3)N2C(=O)[C@@H](NC(=O)c2cc3cc(C(F)(F)P(=O)(O)O)ccc3[nH]2)C1 [Compound 221, (difluoro(2-(((5S,8S,10aR)-3-isobutyryl-8-(methyl(phenyl)carbamoyl)-6-oxodecahydropyrrolo[1,2-a][1,5]diazocin-5-yl)carbamoyl)-1H-indol-5-yl)methyl)phosphonic acid] | 1000 to 10000 nM | 300 to 3000 nM |
| CC(=O)N1CC[C@H]2CC[C@@H](C(=O)N(C)c3ccc(-c4ccccc4)cc3)N2C(=O)[C@@H](NC(=O)c2cc3cc(C(F)(F)P(=O)(O)O)ccc3s2)C1 [Compound 96, ((2-(((5S,8S,10aR)-8-([1,1′-biphenyl]-4-yl(methyl)carbamoyl)-3-acetyl-6-oxodecahydropyrrolo[1,2-a][1,5]diazocin-5-yl)carbamoyl)benzo[b]thiophen-5-yl)difluoromethyl)phosphonic acid] | 1000 to 10000 nM | ≤ 300 nM |
| CC(=O)N1CC[C@H]2CC[C@@H](C(=O)N3CCN(Cc4ccccc4)C(C#N)C3)N2C(=O)[C@@H](NC(=O)c2cc3cc(C(F)(F)P(=O)(O)O)ccc3s2)C1 (stereo partly drawn) [Compound 62, ((2-(((5S,8S,10aR)-3-acetyl-8-(4-benzyl-3-cyanopiperazine-1-carbonyl)-6-oxodecahydropyrrolo[1,2-a][1,5]diazocin-5-yl)carbamoyl)benzo[b]thiophen-5-yl)difluoromethyl)phosphonic acid] | 1000 to 10000 nM | 300 to 3000 nM |
| CC(=O)N1CC[C@H]2CC[C@@H](C(=O)N3C[C@@H](C#N)[C@@H]3c3ccccc3)N2C(=O)[C@@H](NC(=O)c2cc3cc(C(F)(F)P(=O)(O)O)ccc3s2)C1 (relative stereo) [Compound 204, ((2-(((5S,8S,10aR)-3-acetyl-8-((rel-trans)-3-cyano-2-phenylazetidine-1-carbonyl)-6-oxodecahydropyrrolo[1,2-a][1,5]diazocin-5-yl)carbamoyl)benzo[b]thiophen-5-yl)difluoromethyl)phosphonic acid] | 100 to 1000 nM | 300 to 3000 nM |

The remaining lines, values ahead:

| IC50 [1] | IC50 [2] | SMILES |
| --- | --- | --- |
| 100 to 1000 nM | 3000 to 30000 nM | CC(=O)N1C[C@H](NC(=O)[C@@H]2CC[C@@H]3CCN(Cc4ncccn4)C[C@H](NC(=O)c4cc5cc(C(F)P(=O)(O)O)ccc5s4)C(=O)N32)[C@@H](F)C1 (stereo partly drawn) [Compound 400, ((2-(((5S,8S,10aR)-8-(((3S,4S)-1-acetyl-4-fluoropyrrolidin-3-yl)carbamoyl)-6-oxo-3-(pyrimidin-2-ylmethyl)decahydropyrrolo[1,2-a][1,5]diazocin-5-yl)carbamoyl)benzo[b]thiophen-5-yl)fluoromethyl)phosphonic acid] |
| ≤ 100 nM | 3000 to 30000 nM | O=C(N[C@H]1CN(CC(F)F)CC[C@H]2CC[C@@H](C(=O)N3CC(C(=O)N4CCOCC4)C3)N2C1=O)c1cc2cc(C(F)(F)P(=O)(O)O)ccc2s1 [Compound 263, ((2-(((5S,8S,10aR)-3-(2,2-difluoroethyl)-8-(3-(morpholine-4-carbonyl)azetidine-1-carbonyl)-6-oxodecahydropyrrolo[1,2-a][1,5]diazocin-5-yl)carbamoyl)benzo[b]thiophen-5-yl)difluoromethyl)phosphonic acid] |
| > 10000 nM | ≤ 300 nM | Cc1ccc2onc(C(=O)N3CC[C@H]4CC[C@@H](C(=O)N5C[C@@H]6C[C@H]5CO6)N4C(=O)[C@@H](NC(=O)c4ccc5ccc(C(F)P(=O)(O)O)cc5c4)C3)c2c1 (stereo partly drawn) [Compound 372, ((7-(((5S,8S,10aR)-8-((1S,4S)-2-oxa-5-azabicyclo[2.2.1]heptane-5-carbonyl)-3-(5-methylbenzo[d]isoxazole-3-carbonyl)-6-oxodecahydropyrrolo [1,2-a][1,5]diazocin-5-yl)carbamoyl)naphthalen-2-yl)fluoromethyl)phosphonic acid] |
